Measurements as given in the NIST ThermoML archive (doi:10.1021/je030177j).

Settings: Liquid, Capillary tube (Ostwald / Ubbelohde) method

O [water]
viscosity [mPa·s]
Settings	297.88 K	319.09 K	340.98 K	370.39 K	408.77 K	447.38 K	483.66 K	538.57 K	574.32 K
10000 kPa	0.893	0.5912	0.4195	0.2947	0.206	0.1576	0.129	0.1005	0.0866
20000 kPa	0.8933	0.589	0.4232	0.2976	0.2107	0.161	0.1314	0.1027	0.0903
30000 kPa	0.8935	0.5978	0.4275	0.3012	0.2132	0.1637	0.134	0.1058	0.0932
